Test results from the NIST ThermoML archive (doi:10.1016/j.jct.2012.09.016).
Numbers after ± are expanded uncertainties.

Assays:
[1] = Liquid, Vibrating tube method
[2] = molar heat capacity at constant pressure; conditions: Liquid, Small sample (50 mg) DSC

CCCCCN [1-pentanamine]
mass density ([1]; 293.15 K, 100 kPa): 754 ± 0.2 kg/m3
mass density ([1]; 293.15 K, 10000 kPa): 760.8 ± 0.3 kg/m3
mass density ([1]; 293.15 K, 20000 kPa): 767.2 ± 0.4 kg/m3
mass density ([1]; 293.15 K, 30000 kPa): 773.3 ± 0.5 kg/m3
mass density ([1]; 293.15 K, 40000 kPa): 779 ± 0.6 kg/m3
mass density ([1]; 293.15 K, 50000 kPa): 784.3 ± 0.7 kg/m3
mass density ([1]; 293.15 K, 60000 kPa): 789.3 ± 0.8 kg/m3
mass density ([1]; 293.15 K, 70000 kPa): 794 ± 0.9 kg/m3
mass density ([1]; 293.15 K, 80000 kPa): 798.5 ± 1 kg/m3
mass density ([1]; 293.15 K, 90000 kPa): 802.9 ± 1.1 kg/m3
mass density ([1]; 293.15 K, 100000 kPa): 806.9 ± 1.2 kg/m3
mass density ([1]; 293.15 K, 110000 kPa): 810.9 ± 1.3 kg/m3
mass density ([1]; 293.15 K, 120000 kPa): 814.6 ± 1.3 kg/m3
mass density ([1]; 293.15 K, 130000 kPa): 818.2 ± 1.4 kg/m3
mass density ([1]; 293.15 K, 140000 kPa): 821.8 ± 1.5 kg/m3
mass density ([1]; 353.15 K, 100 kPa): 698.5 ± 0.2 kg/m3
mass density ([1]; 353.15 K, 10000 kPa): 709.4 ± 0.4 kg/m3
mass density ([1]; 353.15 K, 20000 kPa): 718.5 ± 0.5 kg/m3
mass density ([1]; 353.15 K, 30000 kPa): 726.8 ± 0.6 kg/m3
mass density ([1]; 353.15 K, 40000 kPa): 734.3 ± 0.7 kg/m3
mass density ([1]; 353.15 K, 50000 kPa): 741.2 ± 0.9 kg/m3
mass density ([1]; 353.15 K, 60000 kPa): 747.6 ± 1 kg/m3
mass density ([1]; 353.15 K, 70000 kPa): 753.6 ± 1.1 kg/m3
mass density ([1]; 353.15 K, 80000 kPa): 759.3 ± 1.2 kg/m3
mass density ([1]; 353.15 K, 90000 kPa): 764.7 ± 1.3 kg/m3
mass density ([1]; 353.15 K, 100000 kPa): 769.8 ± 1.4 kg/m3
mass density ([1]; 353.15 K, 110000 kPa): 774.5 ± 1.5 kg/m3
mass density ([1]; 353.15 K, 120000 kPa): 779 ± 1.6 kg/m3
mass density ([1]; 353.15 K, 130000 kPa): 783.5 ± 1.7 kg/m3
mass density ([1]; 353.15 K, 140000 kPa): 787.7 ± 1.8 kg/m3
mass density ([1]; 363.15 K, 100 kPa): 688.6 ± 0.2 kg/m3
mass density ([1]; 363.15 K, 10000 kPa): 700.1 ± 0.4 kg/m3
mass density ([1]; 363.15 K, 20000 kPa): 710 ± 0.5 kg/m3
mass density ([1]; 363.15 K, 30000 kPa): 718.7 ± 0.6 kg/m3
mass density ([1]; 363.15 K, 40000 kPa): 726.6 ± 0.8 kg/m3
mass density ([1]; 363.15 K, 50000 kPa): 733.9 ± 0.9 kg/m3
mass density ([1]; 363.15 K, 60000 kPa): 740.6 ± 1 kg/m3
mass density ([1]; 363.15 K, 70000 kPa): 746.9 ± 1.1 kg/m3
mass density ([1]; 363.15 K, 80000 kPa): 752.8 ± 1.2 kg/m3
mass density ([1]; 363.15 K, 90000 kPa): 758.5 ± 1.3 kg/m3
mass density ([1]; 363.15 K, 100000 kPa): 763.7 ± 1.4 kg/m3
mass density ([1]; 363.15 K, 110000 kPa): 768.7 ± 1.5 kg/m3
mass density ([1]; 363.15 K, 120000 kPa): 773.4 ± 1.6 kg/m3
mass density ([1]; 363.15 K, 130000 kPa): 777.9 ± 1.7 kg/m3
mass density ([1]; 363.15 K, 140000 kPa): 782.1 ± 1.8 kg/m3
mass density ([1]; 373.15 K, 100 kPa): 679 ± 0.2 kg/m3
mass density ([1]; 373.15 K, 10000 kPa): 691.5 ± 0.4 kg/m3
mass density ([1]; 373.15 K, 20000 kPa): 702 ± 0.5 kg/m3
mass density ([1]; 373.15 K, 30000 kPa): 711.3 ± 0.7 kg/m3
mass density ([1]; 373.15 K, 40000 kPa): 719.6 ± 0.8 kg/m3
mass density ([1]; 373.15 K, 50000 kPa): 727.1 ± 0.9 kg/m3
mass density ([1]; 373.15 K, 60000 kPa): 734.1 ± 1 kg/m3
mass density ([1]; 373.15 K, 70000 kPa): 740.5 ± 1.1 kg/m3
mass density ([1]; 373.15 K, 80000 kPa): 746.7 ± 1.2 kg/m3
mass density ([1]; 373.15 K, 90000 kPa): 752.3 ± 1.3 kg/m3
mass density ([1]; 373.15 K, 100000 kPa): 757.6 ± 1.5 kg/m3
mass density ([1]; 373.15 K, 110000 kPa): 762.7 ± 1.6 kg/m3
mass density ([1]; 373.15 K, 120000 kPa): 767.6 ± 1.6 kg/m3
mass density ([1]; 373.15 K, 130000 kPa): 772.2 ± 1.7 kg/m3
mass density ([1]; 373.15 K, 140000 kPa): 776.6 ± 1.8 kg/m3
mass density ([1]; 383.15 K, 10000 kPa): 682.6 ± 0.4 kg/m3
mass density ([1]; 383.15 K, 20000 kPa): 693.8 ± 0.5 kg/m3
mass density ([1]; 383.15 K, 30000 kPa): 703.7 ± 0.7 kg/m3
mass density ([1]; 383.15 K, 40000 kPa): 712.3 ± 0.8 kg/m3
mass density ([1]; 383.15 K, 50000 kPa): 720.3 ± 0.9 kg/m3
mass density ([1]; 383.15 K, 60000 kPa): 727.5 ± 1 kg/m3
mass density ([1]; 383.15 K, 70000 kPa): 734.3 ± 1.2 kg/m3
mass density ([1]; 383.15 K, 80000 kPa): 740.6 ± 1.3 kg/m3
mass density ([1]; 383.15 K, 90000 kPa): 746.5 ± 1.4 kg/m3
mass density ([1]; 383.15 K, 100000 kPa): 752 ± 1.5 kg/m3
mass density ([1]; 383.15 K, 110000 kPa): 757.2 ± 1.6 kg/m3
mass density ([1]; 383.15 K, 120000 kPa): 762.2 ± 1.7 kg/m3
mass density ([1]; 383.15 K, 130000 kPa): 766.8 ± 1.8 kg/m3
mass density ([1]; 383.15 K, 140000 kPa): 771.4 ± 1.9 kg/m3
mass density ([1]; 393.15 K, 10000 kPa): 673.1 ± 0.4 kg/m3
mass density ([1]; 393.15 K, 20000 kPa): 685.2 ± 0.6 kg/m3
mass density ([1]; 393.15 K, 30000 kPa): 695.5 ± 0.7 kg/m3
mass density ([1]; 393.15 K, 40000 kPa): 704.7 ± 0.8 kg/m3
mass density ([1]; 393.15 K, 50000 kPa): 713.2 ± 0.9 kg/m3
mass density ([1]; 393.15 K, 60000 kPa): 720.8 ± 1.1 kg/m3
mass density ([1]; 393.15 K, 70000 kPa): 727.9 ± 1.2 kg/m3
mass density ([1]; 393.15 K, 80000 kPa): 734.4 ± 1.3 kg/m3
mass density ([1]; 393.15 K, 90000 kPa): 740.3 ± 1.4 kg/m3
mass density ([1]; 393.15 K, 100000 kPa): 746 ± 1.5 kg/m3
mass density ([1]; 393.15 K, 110000 kPa): 751.4 ± 1.6 kg/m3
mass density ([1]; 393.15 K, 120000 kPa): 756.5 ± 1.7 kg/m3
mass density ([1]; 393.15 K, 130000 kPa): 761.4 ± 1.8 kg/m3
mass density ([1]; 393.15 K, 140000 kPa): 766 ± 1.9 kg/m3
mass density ([1]; 403.15 K, 10000 kPa): 664.1 ± 0.4 kg/m3
mass density ([1]; 403.15 K, 20000 kPa): 677 ± 0.6 kg/m3
mass density ([1]; 403.15 K, 30000 kPa): 687.8 ± 0.7 kg/m3
mass density ([1]; 403.15 K, 40000 kPa): 697.3 ± 0.8 kg/m3
mass density ([1]; 403.15 K, 50000 kPa): 705.9 ± 1 kg/m3
mass density ([1]; 403.15 K, 60000 kPa): 713.9 ± 1.1 kg/m3
mass density ([1]; 403.15 K, 70000 kPa): 721 ± 1.2 kg/m3
mass density ([1]; 403.15 K, 80000 kPa): 727.8 ± 1.3 kg/m3
mass density ([1]; 403.15 K, 90000 kPa): 734 ± 1.4 kg/m3
mass density ([1]; 403.15 K, 100000 kPa): 739.9 ± 1.6 kg/m3
mass density ([1]; 403.15 K, 110000 kPa): 745.4 ± 1.7 kg/m3
mass density ([1]; 403.15 K, 120000 kPa): 750.7 ± 1.8 kg/m3
mass density ([1]; 403.15 K, 130000 kPa): 755.7 ± 1.9 kg/m3
mass density ([1]; 403.15 K, 140000 kPa): 760.5 ± 2 kg/m3
molar heat capacity at constant pressure ([2]; 313.15 K, 100 kPa): 221.7 ± 3.8 J/K/mol
molar heat capacity at constant pressure ([2]; 313.15 K, 20000 kPa): 219.7 ± 3.8 J/K/mol
molar heat capacity at constant pressure ([2]; 313.15 K, 40000 kPa): 218.3 ± 3.8 J/K/mol
molar heat capacity at constant pressure ([2]; 313.15 K, 60000 kPa): 217.9 ± 3.8 J/K/mol
molar heat capacity at constant pressure ([2]; 323.15 K, 100 kPa): 222.7 ± 3.9 J/K/mol
molar heat capacity at constant pressure ([2]; 323.15 K, 20000 kPa): 220.1 ± 3.8 J/K/mol
molar heat capacity at constant pressure ([2]; 323.15 K, 40000 kPa): 218.7 ± 3.8 J/K/mol
molar heat capacity at constant pressure ([2]; 323.15 K, 60000 kPa): 218.3 ± 3.8 J/K/mol
molar heat capacity at constant pressure ([2]; 333.15 K, 100 kPa): 223.9 ± 3.9 J/K/mol
molar heat capacity at constant pressure ([2]; 333.15 K, 20000 kPa): 220.8 ± 3.8 J/K/mol
molar heat capacity at constant pressure ([2]; 333.15 K, 40000 kPa): 219.4 ± 3.8 J/K/mol
molar heat capacity at constant pressure ([2]; 333.15 K, 60000 kPa): 218.9 ± 3.8 J/K/mol
molar heat capacity at constant pressure ([2]; 343.15 K, 100 kPa): 225.3 ± 3.9 J/K/mol
molar heat capacity at constant pressure ([2]; 343.15 K, 20000 kPa): 221.8 ± 3.8 J/K/mol
molar heat capacity at constant pressure ([2]; 343.15 K, 40000 kPa): 220.5 ± 3.8 J/K/mol
molar heat capacity at constant pressure ([2]; 343.15 K, 60000 kPa): 219.8 ± 3.8 J/K/mol
molar heat capacity at constant pressure ([2]; 353.15 K, 100 kPa): 226.9 ± 3.9 J/K/mol
molar heat capacity at constant pressure ([2]; 353.15 K, 20000 kPa): 223.3 ± 3.9 J/K/mol
molar heat capacity at constant pressure ([2]; 353.15 K, 40000 kPa): 221.8 ± 3.8 J/K/mol
molar heat capacity at constant pressure ([2]; 353.15 K, 60000 kPa): 221.1 ± 3.8 J/K/mol
molar heat capacity at constant pressure ([2]; 363.15 K, 20000 kPa): 225.1 ± 3.9 J/K/mol
molar heat capacity at constant pressure ([2]; 363.15 K, 40000 kPa): 223.5 ± 3.9 J/K/mol
molar heat capacity at constant pressure ([2]; 363.15 K, 60000 kPa): 222.6 ± 3.9 J/K/mol
molar heat capacity at constant pressure ([2]; 373.15 K, 20000 kPa): 227.4 ± 3.9 J/K/mol
molar heat capacity at constant pressure ([2]; 373.15 K, 40000 kPa): 225.5 ± 3.9 J/K/mol
molar heat capacity at constant pressure ([2]; 373.15 K, 60000 kPa): 224.5 ± 3.9 J/K/mol
molar heat capacity at constant pressure ([2]; 383.15 K, 20000 kPa): 230 ± 4 J/K/mol
molar heat capacity at constant pressure ([2]; 383.15 K, 40000 kPa): 227.8 ± 3.9 J/K/mol
molar heat capacity at constant pressure ([2]; 383.15 K, 60000 kPa): 226.6 ± 3.9 J/K/mol
molar heat capacity at constant pressure ([2]; 393.15 K, 20000 kPa): 232.9 ± 4 J/K/mol
molar heat capacity at constant pressure ([2]; 393.15 K, 40000 kPa): 230.4 ± 4 J/K/mol
molar heat capacity at constant pressure ([2]; 393.15 K, 60000 kPa): 229 ± 4 J/K/mol
molar heat capacity at constant pressure ([2]; 403.15 K, 20000 kPa): 236.3 ± 4.1 J/K/mol
molar heat capacity at constant pressure ([2]; 403.15 K, 40000 kPa): 233.3 ± 4 J/K/mol
molar heat capacity at constant pressure ([2]; 403.15 K, 60000 kPa): 231.8 ± 4 J/K/mol
